Test results published in USRE50050E1, “Pyrimidinedione compounds” (MyoKardia, Inc., priority 2013, dated 2024).
Like-named read-outs stand apart in the source and are kept apart here.

Tests used:
[1] = tested on: adult rat ventricular myocytes; experiment: Cardiomyocyte contractility assay (fractional shortening, IonOptix); assay type: cell-based; conditions: Ventricular myocyte, 5 min, 5 minutes of compound; for inhibition at 0.3 µM: 0.3 uM compound; for inhibition at 1 µM: 1.0 uM compound
Method: Contractility of adult rat ventricular myocytes is determined by edge detection with an IonOptix contractility system. Aliquots of myocytes in Tyrode buffer (137 mM NaCl, 3.7 mM KCL, 0.5 mM MgCl2, 1.5 mM CaCl2, 4 mM HEPES, 11 mM glucose) are placed in a perfusion chamber (Series 20 RC-27NE; Warner Instruments), allowed to adhere to the coverslip, and then perfused with 37° C. Tyrode buffer. Myocytes are filed stimulated at 1 Hz and 10V. Only myocytes with clear striations, quiescent prior to pacing, with a cell length of 120-180 microns, a basal fractional shortening equal to 3-8% of the cell length, and a contraction velocity greater than 100 microns per second are used for contractility experiments. To determine the response to compounds, myocytes are first perfused for 60 seconds with Tyrodes buffer followed by 5 minutes of compound and a 140 second washout with Tyrodes buffer. Data is continuously recorded using IonOptix software. Contractility data is analyzed using Ionwizard software (IonOptix). For each cell, 10-20 contractility transients were averaged and compared under basal (no compound) and compound-treated conditions. Compound activity is measured by effects on fractional shortening (FS), where fractional shortening is the ratio of the peak length of the cell at contraction divided by the basal cell length normalized to 100% for an untreated cell.

bovine cardiac myosin = target: T1, bovine cardiac myosin (Bos taurus, UniProt Q9BE39); experiment: Myosin inhibition assay (PK/LDH-coupled ATPase, bovine cardiac myofibrils); assay type: biochemical; conditions: bovine cardiac myofibrils
T1 construct: The source of cardiac myosin was from bovine heart in the form of skinned myofibrils; from tissue; host or cells: bovine heart, skinned myofibrils
T1 sequence (Q9BE39 whole entry): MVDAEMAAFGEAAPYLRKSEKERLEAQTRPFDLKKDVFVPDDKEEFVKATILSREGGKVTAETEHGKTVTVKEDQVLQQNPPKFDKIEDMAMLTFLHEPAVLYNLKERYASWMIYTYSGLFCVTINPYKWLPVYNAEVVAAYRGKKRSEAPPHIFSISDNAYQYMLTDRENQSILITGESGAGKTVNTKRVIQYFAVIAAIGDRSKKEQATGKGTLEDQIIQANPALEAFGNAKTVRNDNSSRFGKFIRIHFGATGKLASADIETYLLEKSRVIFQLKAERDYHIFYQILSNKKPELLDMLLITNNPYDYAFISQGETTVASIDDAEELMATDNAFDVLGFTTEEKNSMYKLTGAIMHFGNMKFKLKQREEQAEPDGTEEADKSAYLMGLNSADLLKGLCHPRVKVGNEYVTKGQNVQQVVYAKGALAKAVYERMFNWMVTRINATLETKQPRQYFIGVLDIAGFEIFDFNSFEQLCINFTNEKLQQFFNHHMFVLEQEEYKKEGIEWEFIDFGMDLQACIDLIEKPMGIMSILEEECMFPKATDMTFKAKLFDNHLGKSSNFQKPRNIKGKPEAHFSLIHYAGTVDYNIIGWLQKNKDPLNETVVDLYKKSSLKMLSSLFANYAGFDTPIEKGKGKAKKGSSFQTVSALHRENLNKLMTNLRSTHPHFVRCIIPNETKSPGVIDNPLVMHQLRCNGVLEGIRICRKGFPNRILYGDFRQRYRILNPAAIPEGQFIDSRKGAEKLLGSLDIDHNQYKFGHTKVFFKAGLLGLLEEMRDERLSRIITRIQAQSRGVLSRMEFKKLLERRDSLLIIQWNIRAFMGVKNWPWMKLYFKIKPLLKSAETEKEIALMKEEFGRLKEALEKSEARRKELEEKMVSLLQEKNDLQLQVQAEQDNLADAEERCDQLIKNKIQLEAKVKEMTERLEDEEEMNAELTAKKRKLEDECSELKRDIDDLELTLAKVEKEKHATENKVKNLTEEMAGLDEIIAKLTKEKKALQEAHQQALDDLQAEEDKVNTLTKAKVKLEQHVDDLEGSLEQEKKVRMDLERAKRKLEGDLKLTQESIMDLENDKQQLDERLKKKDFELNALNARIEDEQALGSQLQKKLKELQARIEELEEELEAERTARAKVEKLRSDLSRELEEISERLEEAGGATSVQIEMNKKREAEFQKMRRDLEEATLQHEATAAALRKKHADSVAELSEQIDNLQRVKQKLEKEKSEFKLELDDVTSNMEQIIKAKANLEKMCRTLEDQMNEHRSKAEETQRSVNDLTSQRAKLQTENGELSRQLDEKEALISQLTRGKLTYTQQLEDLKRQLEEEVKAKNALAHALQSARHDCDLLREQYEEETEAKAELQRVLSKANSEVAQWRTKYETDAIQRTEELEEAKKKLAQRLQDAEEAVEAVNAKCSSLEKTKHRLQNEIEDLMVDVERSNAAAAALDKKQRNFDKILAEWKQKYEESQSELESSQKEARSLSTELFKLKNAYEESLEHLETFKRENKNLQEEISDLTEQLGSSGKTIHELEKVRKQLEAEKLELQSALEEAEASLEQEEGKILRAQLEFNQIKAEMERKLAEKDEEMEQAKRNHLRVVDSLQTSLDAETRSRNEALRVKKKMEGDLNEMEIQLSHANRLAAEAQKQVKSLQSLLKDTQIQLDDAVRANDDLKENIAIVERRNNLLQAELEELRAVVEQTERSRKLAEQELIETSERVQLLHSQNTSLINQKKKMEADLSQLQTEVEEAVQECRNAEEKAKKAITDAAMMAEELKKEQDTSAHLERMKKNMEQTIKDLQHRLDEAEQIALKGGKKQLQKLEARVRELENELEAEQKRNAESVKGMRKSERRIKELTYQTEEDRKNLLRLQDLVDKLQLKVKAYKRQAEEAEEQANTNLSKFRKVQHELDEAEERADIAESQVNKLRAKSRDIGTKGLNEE
T1 sequence (P85100 whole entry partner): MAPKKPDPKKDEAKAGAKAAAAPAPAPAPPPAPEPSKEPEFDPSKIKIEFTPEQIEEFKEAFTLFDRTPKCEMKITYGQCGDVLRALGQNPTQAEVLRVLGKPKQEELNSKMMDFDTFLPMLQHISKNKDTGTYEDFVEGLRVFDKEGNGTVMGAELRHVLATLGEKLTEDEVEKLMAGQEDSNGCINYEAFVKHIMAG
T1 sequence (Q3SZE5 whole entry partner): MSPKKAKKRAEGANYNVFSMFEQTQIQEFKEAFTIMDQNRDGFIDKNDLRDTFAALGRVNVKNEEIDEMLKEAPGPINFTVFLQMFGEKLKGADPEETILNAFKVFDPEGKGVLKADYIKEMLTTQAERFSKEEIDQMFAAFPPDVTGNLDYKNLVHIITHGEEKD

[2] = calcium giving 75% activation (pCa75), read-out: Biochemical Activity (pCa75)
[3] = calcium giving 50% activation (pCa50), read-out: Biochemical Activity (pCa50)

IC50 (bovine cardiac myosin; [2]) [µM]	IC50 (bovine cardiac myosin; [3]) [µM]	Structure (SMILES)	also measured
1 to 15	–	CC(C)n1c(=O)[nH]c(N[C@@H](C)c2ccccc2)c(F)c1=O [Compound 2, (S)-5-Fluoro-3-isopropyl-6-((1-phenylethyl)amino)pyrimidine-2,4(1H,3H)-dione]	inhibition at 0.3 µM [1]: 33 to 66%; inhibition at 1 µM [1]: > 66%
< 1	–	C[C@H](Nc1cc(=O)n(C2CCN(S(C)(=O)=O)CC2)c(=O)[nH]1)c1ccccc1 [Compound 12, (S)-3-(1-(methylsulfonyl)piperidin-4-yl)-6-(1-phenylethylamino)pyrimidine-2,4(1H,3H)-dione]	inhibition at 1 µM [1]: 33 to 66%
–	–	CC(C)n1c(=O)cc(N[C@H](C)c2ccccc2)[nH]c1=O [Compound 19R]	inhibition at 1 µM [1]: < 33%
< 1	< 1	CC(C)n1c(=O)cc(N[C@@H](C)c2cccc(F)c2)[nH]c1=O [Compound 27]	inhibition at 0.3 µM [1]: 33 to 66%
–	1 to 15	CC(C)n1c(=O)cc(N[C@@H](COCc2ccccc2)c2ccccc2)[nH]c1=O [Compound 64, (R)-6-((2-(benzyloxy)-1-phenylethyl)amino)-3-isopropylpyrimidine-2,4(1H,3H)-dione]	–
–	1 to 15	Cc1cccc(-n2c(=O)cc(N[C@@H](C)c3ccccc3)[nH]c2=O)n1 [Compound 65, (S)-3-(6-methylpyridin-2-yl)-6-((1-phenylethyl)amino)pyrimidine-2,4(1H,3H)-dione]	–
–	1 to 15	C[C@H](Nc1cc(=O)n(CC(F)F)c(=O)[nH]1)c1ccccc1 [Compound 66, (S)-3-(2,2-difluoroethyl)-6-((1-phenylethyl)amino)pyrimidine-2,4(1H,3H)-dione]	–
–	< 1	Cc1ccccc1[C@H](C)Nc1cc(=O)n(C(C)C)c(=O)[nH]1 [Compound 68, (S)-3-isopropyl-6-((1-(o-tolyl)ethyl)amino)pyrimidine-2,4(1H,3H)-dione]	–
1 to 15	–	CC(C)n1c(=O)cc(N[C@@H](C)c2cccc(-n3ccnc3)c2)[nH]c1=O [Compound 72]	–
1 to 15	–	C[C@H](Nc1cc(=O)n(-c2ccnnc2)c(=O)[nH]1)c1ccccc1 [Compound 73]	–
1 to 15	–	C[C@H](Nc1cc(=O)n(-c2cncnc2)c(=O)[nH]1)c1ccccc1 [Compound 74]	–
1 to 15	–	C[C@H](Nc1cc(=O)n(-c2cnccn2)c(=O)[nH]1)c1ccccc1 [Compound 75]	–
1 to 15	–	CC(C)n1c(=O)cc(N[C@@H](C)c2cccnc2)[nH]c1=O [Compound 76]	–
1 to 15	–	C[C@H](Nc1cc(=O)n(-c2cnn(C)c2)c(=O)[nH]1)c1ccccc1 [Compound 77]	–
< 1	–	CCC[C@H](Nc1cc(=O)n(C(C)C)c(=O)[nH]1)c1ccccc1 [Compound 78]	–
1 to 15	–	C[C@H](Nc1cc(=O)n([C@@H]2CCCOC2)c(=O)[nH]1)c1ccccc1 [Compound 79]	–
< 1	–	C[C@H](Nc1cc(=O)n(C2CCCC2)c(=O)[nH]1)c1ccccc1 [Compound 80]	–
1 to 15	–	CC(C)[C@H](Nc1cc(=O)n(C(C)C)c(=O)[nH]1)c1ccccc1 [Compound 81]	–
< 1	< 1	C[C@H](Nc1cc(=O)n(C2CCC(F)(F)CC2)c(=O)[nH]1)c1ccccc1 [Compound 82]	–
< 1	–	CCC(CC)n1c(=O)cc(N[C@@H](C)c2ccccc2)[nH]c1=O [Compound 83]	–
< 1	–	C[C@H](Nc1cc(=O)n(C2CCN(C(=O)c3ccccc3)CC2)c(=O)[nH]1)c1ccccc1 [Compound 84]	–
< 1	–	CC(C)n1c(=O)cc(N[C@@H](C)CCc2ccccc2)[nH]c1=O [Compound 85]	–

IC50 (bovine cardiac myosin; [2]) [µM]	IC50 (bovine cardiac myosin; [3]) [µM]	Structure (SMILES)	also measured
1 to 15	–	COC(=O)Cn1c(=O)cc(N[C@@H](C)c2ccccc2)[nH]c1=O [Compound 86]	–
1 to 15	–	C[C@H](Nc1cc(=O)n([C@@H](C)COCc2ccccc2)c(=O)[nH]1)c1ccccc1 [Compound 91]	–
1 to 15	1 to 15	C[C@H](Nc1cc(=O)n([C@@H](C)CO)c(=O)[nH]1)c1ccccc1 [Compound 92]	–
< 1	1 to 15	CC(C)n1c(=O)cc(N[C@@H](CO)c2ccccc2)[nH]c1=O [Compound 93]	–
< 1	–	C[C@H](Nc1cc(=O)n([C@H](C)C(F)(F)F)c(=O)[nH]1)c1ccccc1 [Compound 94]	–
< 1	< 1	C[C@H](Nc1cc(=O)n([C@@H](C)C(F)(F)F)c(=O)[nH]1)c1ccccc1 [Compound 95]	–
< 1	–	CC(CC(F)(F)F)n1c(=O)cc(N[C@@H](C)c2ccccc2)[nH]c1=O (stereo partly drawn) [Compound 99]	–
1 to 15	–	C[C@H](Nc1cc(=O)n(CC(F)(F)F)c(=O)[nH]1)c1ccccc1 [Compound 100]	–
–	1 to 15	C[C@H](Nc1cc(=O)n(C(C)(C)C)c(=O)[nH]1)c1ccccc1 [Compound 101]	–
–	1 to 15	COCCn1c(=O)cc(N[C@@H](C)c2ccccc2)[nH]c1=O [Compound 102]	–
–	< 1	CC[C@H](Nc1cc(=O)n([C@@H](C)C(F)(F)F)c(=O)[nH]1)c1ccccc1 [Compound 103]	–
–	< 1	C[C@H](Nc1cc(=O)n([C@H](C)C2CC2)c(=O)[nH]1)c1ccccc1 [Compound 104]	–
–	< 1	C[C@H](Nc1cc(=O)n([C@@H](C)C2CC2)c(=O)[nH]1)c1ccccc1 [Compound 105]	–
–	< 1	CCn1c(=O)cc(N[C@H](c2ccccc2)C2CCC2)[nH]c1=O [Compound 106]	–
–	< 1	CC(C)n1c(=O)cc(N[C@@H](C)c2ccc3c(c2)OCO3)[nH]c1=O [Compound 107]	–
–	< 1	CCn1c(=O)cc(N[C@@H](C)c2ccc3c(c2)OCO3)[nH]c1=O [Compound 108]	–
–	1 to 15	CC[C@H](Nc1cc(=O)n(CC(F)(F)F)c(=O)[nH]1)c1ccccc1 [Compound 109]	–
–	1 to 15	C[C@H](Nc1cc(=O)n(CC2CC2)c(=O)[nH]1)c1ccccc1 [Compound 110]	–
–	1 to 15	O=c1cc(N[C@H](c2ccccc2)C2CC2)[nH]c(=O)n1CC(F)(F)F [Compound 111]	–
–	< 1	O=c1cc(N[C@H](c2ccccc2)C2CCC2)[nH]c(=O)n1CC(F)(F)F [Compound 112]	–
–	1 to 15	C[C@H](Nc1cc(=O)n(C(CO)CO)c(=O)[nH]1)c1ccccc1 [Compound 113]	–
–	< 1	CC(C)n1c(=O)cc(N[C@@H](C)c2ccccc2O)[nH]c1=O [Compound 116]	–

IC50 (bovine cardiac myosin; [2]) [µM]	IC50 (bovine cardiac myosin; [3]) [µM]	Structure (SMILES)	also measured
–	< 1	C[C@H](Nc1cc(=O)n(C2(C(F)(F)F)CC2)c(=O)[nH]1)c1ccccc1 [Compound 117]	–
–	< 1	C[C@@H](Cc1ccc(F)cc1)Nc1cc(=O)n(-c2cc(F)cc(F)c2)c(=O)[nH]1 [Compound 118]	–
–	< 1	CC(C)n1c(=O)cc(N[C@@H](C)c2ccc3c(c2)OC(F)(F)O3)[nH]c1=O [Compound 119]	–
–	< 1	CC(C)n1c(=O)cc(N[C@@H](C)c2ccccc2Cl)[nH]c1=O [Compound 120]	–
–	< 1	COc1ccc([C@H](C)Nc2cc(=O)n(C(C)C)c(=O)[nH]2)cc1 [Compound 121]	–
–	1 to 15	CCn1c(=O)cc(N[C@H](c2ccccc2)C2CC2)[nH]c1=O [Compound 122]	–
–	< 1	CCn1c(=O)cc(N[C@@H](C)c2cccc(Cl)c2)[nH]c1=O [Compound 123]	–
–	< 1	CCn1c(=O)cc(N[C@@H](C)c2cccc(C(F)(F)F)c2)[nH]c1=O [Compound 124]	–
–	< 1	C[C@H](Nc1cc(=O)n(CC2CC2)c(=O)[nH]1)c1cccc(F)c1 [Compound 125]	–
–	1 to 15	C[C@H](Nc1cc(=O)n(CC2CC2)c(=O)[nH]1)c1cccc(C(F)(F)F)c1 [Compound 126]	–
–	< 1	C[C@H](Nc1cc(=O)n(CC2CC2)c(=O)[nH]1)c1cccc(Cl)c1 [Compound 127]	–
–	1 to 15	CC(C)n1c(=O)[nH]c(N[C@@H](C)c2ccc3c(c2)OC(F)(F)O3)c(Cl)c1=O [Compound 128]	–
–	1 to 15	CCCn1c(=O)cc(N[C@@H](C)c2cccc(F)c2)[nH]c1=O [Compound 129]	–
–	< 1	CCCn1c(=O)cc(N[C@@H](C)c2cccc(Cl)c2)[nH]c1=O [Compound 130]	–
–	< 1	CCCn1c(=O)cc(N[C@@H](C)c2cccc(C(F)(F)F)c2)[nH]c1=O [Compound 131]	–
–	< 1	C[C@H](Nc1cc(=O)n(C2CCC2)c(=O)[nH]1)c1ccc(F)cc1 [Compound 132]	–
–	< 1	CCn1c(=O)cc(N[C@@H](C)c2ccc(F)c(F)c2)[nH]c1=O [Compound 134]	–
–	< 1	CC[C@H](C)n1c(=O)cc(N[C@@H](C)c2ccc(F)cc2)[nH]c1=O [Compound 135]	–
–	< 1	CCCn1c(=O)cc(N[C@@H](C)c2ccc(F)cc2)[nH]c1=O [Compound 136]	–
–	< 1	C[C@H](Nc1cc(=O)n(-c2cccc(F)n2)c(=O)[nH]1)c1ccccc1 [Compound 137]	–

Structure (SMILES)	IC50 (bovine cardiac myosin; [2]) [µM]	IC50 (bovine cardiac myosin; [3]) [µM]	also measured
CC(C)n1c(=O)cc(N[C@@H](C)Cc2ccccc2)[nH]c1=O [Compound 90]	1 to 15	–	–
C[C@H](n1c(=O)cc(N[C@@H](C)Cc2ccc(F)cc2)[nH]c1=O)C(F)(F)F [Compound 114]	–	< 1	–
